Laboratory results: ChEMBL document CHEMBL1949500, “Discovery of dimeric inhibitors by extension into the entrance channel of HIV-1 reverse transcriptase” (Bioorg Med Chem Lett, 2012)
pEC50: −log10 of the molar value.

Columns and labels:
MT2 = assay: (§1) Cytotoxicity against human MT2 cells by MTT assay; type: cell-based; conditions: mt2
[1] = test system: Human immunodeficiency virus 1; assay: Antiviral activity against HIV1 3B infected in human MT2 cells assessed as inhibition of virus-induced cytopathic effect by MTT assay; type: functional, organism-based; conditions: for pEC50: Human immunodeficiency virus 1, 3B, MT2, read-out: EC50; for EC50: mt2
[2] = as §1; type: cell-based; conditions: MT2 cells

Row | Compound | CC50 (MT2) [µM] | pEC50 [1] | EC50 [1] | CC50 [2] [µM]
1 | COCCOc1nc(Nc2ccc(C#N)c(OCC=C(C)C)c2)nc(OC)n1 | 8.6 | 7.01 |  | 
2 | COCCOCCOc1nc(Nc2ccc(C#N)c(OCC=C(C)C)c2)nc(OC)n1 | 13 | 6.82 |  | 
3 | COCCOCCOCCOc1nc(Nc2ccc(C#N)c(OCC=C(C)C)c2)nc(OC)n1 | 4.2 | 6.42 |  | 
4 | CCc1nc(Nc2ccc(C#N)c(OCC=C(C)C)c2)nc(OCCOC)n1 | 2.1 | 7.24 |  | 
5 | CCc1nc(Nc2ccc(C#N)c(OCC=C(C)C)c2)nc(OCCOCCOC)n1 | 9.8 | 6.27 |  | 
6 | COc1nc(Nc2ccc(C#N)c(OCC=C(C)C)c2)nc(OCCN2CCN(C)CC2)n1 | 7 | 6.49 |  | 
7 | COc1nc(Nc2ccc(C#N)c(OCC=C(C)C)c2)nc(OCCOc2nc(Nc3ccc(C#N)c(OCC=C(C)C)c3)nc(OC)n2)n1 | 42 | 6.41 |  | 
8 | COc1nc(Nc2ccc(C#N)c(OCC=C(C)C)c2)nc(OCCCOc2nc(Nc3ccc(C#N)c(OCC=C(C)C)c3)nc(OC)n2)n1 | 21 | 6.77 |  | 
9 | COc1nc(Nc2ccc(C#N)c(OCC=C(C)C)c2)nc(OCCCCOc2nc(Nc3ccc(C#N)c(OCC=C(C)C)c3)nc(OC)n2)n1 | > 100 |  | Not Active | 
10 | COc1nc(Nc2ccc(C#N)c(OCC=C(C)C)c2)nc(OCCOCCOc2nc(Nc3ccc(C#N)c(OCC=C(C)C)c3)nc(OC)n2)n1 | > 100 |  | Not Active | 
11 | COc1nc(NCCNc2nc(Nc3ccc(C#N)c(OCC=C(C)C)c3)nc(OC)n2)nc(Nc2ccc(C#N)c(OCC=C(C)C)c2)n1 | 6 |  | Not Active | 
12 | COc1nc(NCCCNc2nc(Nc3ccc(C#N)c(OCC=C(C)C)c3)nc(OC)n2)nc(Nc2ccc(C#N)c(OCC=C(C)C)c2)n1 | 50 |  | Not Active | 
13 | COc1nc(Nc2ccc(C#N)c(OCC=C(C)C)c2)nc(OCCC2CCCCO2)n1 (racemic) | 4.2 | 5.92 |  | 
14 | Cc1ccnc2c1NC(=O)c1cccnc1N2C1CC1 [NEVIRAPINE] |  |  |  | > 100
